Results taken from patent US20230416801A1, “ANTIMICROBIC SUSCEPTIBILITY TESTING USING RECURRENT NEURAL NETWORKS” (Beckman Coulter, Inc., priority 2020, published 2023).

Tests used:
Pseudomonas aeruginosa [1] = assay: Growth/no growth determinations made at 4, 5 and 6 hours by trained recurrent neural network (24 GRU) model from test-well organism counts; assay type: cell-based; details: for 4 Hour Call: model output 0-1 at 4 hours; for 5 Hour Call: model output 0-1 at 5 hours; for 6 Hour Call: model output 0-1 at 6 hours
Text: FIG. 8 provides an illustration of how data that can be used in an optimized AST method 101 can be captured from a test well. Test well 20 is embodied by a “384” style test well, having a clear viewing bottom. The volume of inoculum in test well 20 may be set to 20 microliters to reduce the amount of materials such as bulk diluents required by AST method 101 and/or minimize light artifacts and provide sampling of a consistent number of microbes from the 1:250 dilution of the 0.5 MacFarland inoculum. Decreasing the volume of inoculum in test well 20 generally increases the light artifacts. In some instances, capturing a single vertical plane 103 at 20× objective whereby AST camera 35 is set at 0.33 microns/pixel may be sufficient for sampling the inoculum and ensuring that each individual microbe is recognizable. However, these parameters are configurable and may change as desired by the user or the underlying needs of the system. Capturing three focal sites spaced about 5 microns apart within single vertical plane 103 may also provide a sufficient number of microbes in the sample to count for use in optimized AST method 101. These three focal sites are labeled site 105, site 107, and site 109 in FIG. 8. In an exemplary version of optimized AST method 101, each focal site is approximately 700×700 microns within single vertical plane 103, rather than capturing three sites in three different vertical planes. AST camera 35, optics system 9, and computer 49 are configured to capture an image of each focal site in consecutive time periods, manipulate each of these images, and thereafter use the data derived from these manipulated images to make a MIC determination.
Once data extraction step 117 derives the desired information from segmented image 143, image analysis cycle 102 terminates. Optimized AST method 101 iteratively performs image analysis cycle 102 at set time intervals to determine how the microbes in each test well 20 are changing and reacting to the particular antimicrobic dilution pairing. Further, optimized AST method 101 iteratively performs image analysis cycle 102 on each test well 20 associated with the microbes to determine how the microbes are reacting to each concentration of the antimicrobic dilution. For example, presume the microbes being tested are E. coli bacteria and three test wells 20 are being tested, with each test well 20 having a 20-microliter solution therein. The first test well 20 may contain an antimicrobic dilution of 1 microgram per milliliter (μg/ml), the second test well 20 may contain an antimicrobic dilution of 2 μg/ml, and the third test well 20 may contain an antimicrobic dilution of 4 μg/ml. Optimized AST method 101 performs image analysis cycle 102 on each of the three test wells at each set time interval to determine (a) how each antimicrobic dilution is affecting the microbes; and (b) how each antimicrobic dilution is performing relative to the other antimicrobic dilutions. If the data indicates the 1 μg/ml antimicrobic dilution is as effective as the 2 and 4 μg/ml antimicrobic dilutions at neutralizing the microbes, the 1 μg/ml antimicrobic dilution is the MIC.
In step 163, the MIC is determined. The determination is based on the data collected during each iteration of image analysis cycle 102 for all of the antimicrobic dilutions for a microbial sample as well as for a control well where no antimicrobial agent was present. As described in the following section, this determination may involve processing the collected data with a machine learning model that had previously been trained to make determinations of whether an antimicrobial dilution in a test well would inhibit growth and then determining the MIC based on the test well with the lowest concentration where the machine learning model made a determination that growth would be inhibited. […]

Pseudomonas aeruginosa [2] = assay: Target growth or no growth label determined after 16 hours; assay type: cell-based; parameters: key: a value of 1 could be interpreted as a determination that growth would not be inhibited; a value of 0 could be interpreted as a determination that growth would be inhibited; details: growth label after 16 hours
Text: As an illustration of how these types of training approaches could be applied in practice, consider tables 5-12, below. In those tables, tables 5-9 provides GRU kernel weights, GRU recurrent weights, GRU bias weights, dense kernel weights, and a dense bias weight for a model implemented using the Keras API (an open source project governed by the Keras Special Interest Group and available at https://keras.io) and Tensorflow backend (an open source machine learning platform developed by Google, Inc. and available at https://www.tensorflow.org/) comprising a network cluster with 24 GRUs trained to make MIC determinations at 4, 5 and 6 hours based on training data for 56 microorganism strains when combined with various antimicrobials and the various combinations were labeled with growth or no growth information determined after 16 hours. In particular, table 5 provides a 1×72 array, in which the first 24 values would be mapped to Wz, the second 24 values would be mapped to Wr and the third 24 values would be mapped to Wh in an embodiment following FIG. 19. Table 6 provides a 72×24 array, in which the first 24×24 array (i.e., the first 24 bracketed sets of values) would be mapped to Uz, the next 24×24 array would be mapped to Ur and the third 24×24 array would be mapped to Uh in an embodiment following FIG. 19. Table 7 provides a 1×72 array, in which the first 24 values would be mapped to bz, the second 24 values would be mapped to br and the third 24 values would be mapped to bh in an embodiment following FIG. 19. Table 8 provides a 1×1344 array of values which would be multiplied by the output of the combination function 1806 in the dense layer 1807. Table 9 provides a bias value which would be added to the output of the dense layer 1807 before it was provided to the activation function 1808. Table 10 provides growth/no growth determinations made at 4, 5 and 6 hours by a system trained as described above for Pseudomonas aeruginosa and the drug Ceftazidime. Tables 11-12 provide microorganisms and antimicrobials included in the training data described above and for which the model was confirmed to be effective.

In the case of `CC(C)(O/N=C(\C(=O)N[C@@H]1C(=O)N2C(C(=O)[O-])=C(C[n+]3ccccc3)CS[C@H]12)c1csc(N)n1)C(=O)O` [Ceftazidime], the “4 Hour Call” value (Pseudomonas aeruginosa [1]; Dilution 0.03) is reported as 1, the “5 Hour Call” value (Pseudomonas aeruginosa [1]; Dilution 0.03) is reported as 1 and the “6 Hour Call” value (Pseudomonas aeruginosa [1]; Dilution 0.03) is reported as 1. For the same compound, the “4 Hour Call” value (Pseudomonas aeruginosa [1]; Dilution 0.06) was 1, the “5 Hour Call” value (Pseudomonas aeruginosa [1]; Dilution 0.06) was 1 and the “6 Hour Call” value (Pseudomonas aeruginosa [1]; Dilution 0.06) was 1. For the same compound, the “4 Hour Call” value (Pseudomonas aeruginosa [1]; Dilution 0.12) was 1, the “5 Hour Call” value (Pseudomonas aeruginosa [1]; Dilution 0.12) was 1 and the “6 Hour Call” value (Pseudomonas aeruginosa [1]; Dilution 0.12) was 1. For the same compound, the “4 Hour Call” value (Pseudomonas aeruginosa [1]; Dilution 0.25) was 1, the “5 Hour Call” value (Pseudomonas aeruginosa [1]; Dilution 0.25) was 1 and the “6 Hour Call” value (Pseudomonas aeruginosa [1]; Dilution 0.25) was 1. The “4 Hour Call” value (Pseudomonas aeruginosa [1]; Dilution 0.5) was 1, the “5 Hour Call” value (Pseudomonas aeruginosa [1]; Dilution 0.5) was 1 and the “6 Hour Call” value (Pseudomonas aeruginosa [1]; Dilution 0.5) was 1. For the same compound, the “4 Hour Call” value (Pseudomonas aeruginosa [1]; Dilution 1) was 0.2105, the “5 Hour Call” value (Pseudomonas aeruginosa [1]; Dilution 1) was 0.9399 and the “6 Hour Call” value (Pseudomonas aeruginosa [1]; Dilution 1) was 0.9518. The “4 Hour Call” value (Pseudomonas aeruginosa [1]; Dilution 2) was 0.003836, the “5 Hour Call” value (Pseudomonas aeruginosa [1]; Dilution 2) was 4.89E−05 and the “6 Hour Call” value (Pseudomonas aeruginosa [1]; Dilution 2) was 3.77E−06. For the same compound, the “4 Hour Call” value (Pseudomonas aeruginosa [1]; Dilution 4) was 0.002258, the “5 Hour Call” value (Pseudomonas aeruginosa [1]; Dilution 4) was 7.26E−06 and the “6 Hour Call” value (Pseudomonas aeruginosa [1]; Dilution 4) was 2.27E−07. For the same compound, the “4 Hour Call” value (Pseudomonas aeruginosa [1]; Dilution 8) was 0.0001531, the “5 Hour Call” value (Pseudomonas aeruginosa [1]; Dilution 8) was 0.0005926 and the “6 Hour Call” value (Pseudomonas aeruginosa [1]; Dilution 8) was 0.000432. The “4 Hour Call” value (Pseudomonas aeruginosa [1]; Dilution 16) was 0.003935, the “5 Hour Call” value (Pseudomonas aeruginosa [1]; Dilution 16) was 0.001447 and the “6 Hour Call” value (Pseudomonas aeruginosa [1]; Dilution 16) was 2.32E−06. For the same compound, the “4 Hour Call” value (Pseudomonas aeruginosa [1]; Dilution 32) was 0.009609, the “5 Hour Call” value (Pseudomonas aeruginosa [1]; Dilution 32) was 5.69E−05 and the “6 Hour Call” value (Pseudomonas aeruginosa [1]; Dilution 32) was 1.23E−06. The “4 Hour Call” value (Pseudomonas aeruginosa [1]; Dilution 64) was 0.001147, the “5 Hour Call” value (Pseudomonas aeruginosa [1]; Dilution 64) was 1.21E−05 and the “6 Hour Call” value (Pseudomonas aeruginosa [1]; Dilution 64) was 1.64E−06. For the same compound, the Target (Pseudomonas aeruginosa [2]; Dilution 0.03) was 1, the Target (Pseudomonas aeruginosa [2]; Dilution 0.06) was 1 and the Target (Pseudomonas aeruginosa [2]; Dilution 0.12) was 1. For the same compound, the Target (Pseudomonas aeruginosa [2]; Dilution 0.25) was 1, the Target (Pseudomonas aeruginosa [2]; Dilution 0.5) was 1 and the Target (Pseudomonas aeruginosa [2]; Dilution 1) was 1. It also gave a Target (Pseudomonas aeruginosa [2]; Dilution 2) of 0, a Target (Pseudomonas aeruginosa [2]; Dilution 4) of 0 and a Target (Pseudomonas aeruginosa [2]; Dilution 8) of 0. It also gave a Target (Pseudomonas aeruginosa [2]; Dilution 16) of 0, a Target (Pseudomonas aeruginosa [2]; Dilution 32) of 0 and a Target (Pseudomonas aeruginosa [2]; Dilution 64) of 0.
